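Protocol summary: plate cells (96-well), add compound at 5 concentrations, incubate 48 h, interpolate endpoints linearly. GI50 is the concentration that inhibits growth by half. TGI: concentration producing complete growth inhibition.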
Legend:
Experiment in all cases: NCI anticancer screen, dose series, 48 h
[1] = system: SF-539 CNS
[2] = system: MOLT-4 leukemia
[3] = system: COLO 205 colon
[4] = system: M14 melanoma
[5] = system: PC-3 prostate
[6] = system: NCI-H226 lung
[7] = system: RPMI-8226 leukemia
[8] = system: SN12C renal
[9] = system: T-47D breast
[10] = system: 786-0 renal
[11] = system: HS 578T breast
[12] = system: KM12 colon
[13] = system: OVCAR-5 ovarian
[14] = system: U251 CNS
[15] = system: EKVX NSCLC
[16] = system: OVCAR-3 ovarian
[17] = system: OVCAR-4 ovarian
[18] = system: MCF7 breast
[19] = system: SF-295 CNS
[20] = system: MALME-3M melanoma
[21] = system: SNB-75 CNS
[22] = system: HCT-15 colon
[23] = system: NCI-H23 lung
[24] = system: NCI-H522 lung
[25] = system: RXF 393 renal
[26] = system: OVCAR-8 ovarian
[27] = system: NCI-H460 lung
[28] = system: MDA-MB-231 breast

## CN(C)CC(C(=O)Cc1ccccc1)c1ccccc1 (stereo unspecified)
[1]
  GI50: 1870 nM
  TGI: 3.99 µM
[2]
  GI50: 3.02 µM
  TGI: > 100 µM
[3]
  GI50: 2300 nM
  TGI: 5.04 µM
[4]
  GI50: 2340 nM
  TGI: 4.97 µM
[5]
  GI50: 7.53 µM
  TGI: 22.4 µM
[6]
  GI50: 13.8 µM
  TGI: 38.3 µM
[7]
  GI50: 444 nM
  TGI: 3.17 µM
[8]
  GI50: 3.04 µM
  TGI: 11 µM
[9]
  GI50: 1110 nM
  TGI: 4.91 µM
[10]
  GI50: 2180 nM
  TGI: 4.51 µM
[11]
  GI50: 3.16 µM
  TGI: 9.83 µM
[12]
  GI50: 1070 nM
  TGI: 2490 nM
[13]
  GI50: 8.19 µM
  TGI: 22.4 µM
[14]
  GI50: 2230 nM
  TGI: 5.02 µM
[15]
  GI50: 17 µM
  TGI: 40.5 µM
[16]
  GI50: 1900 nM
  TGI: 3.48 µM
[17]
  GI50: 2350 nM
  TGI: 5.87 µM
[18]
  GI50: 369 nM
  TGI: 1670 nM
[19]
  GI50: 11.3 µM
  TGI: 27.8 µM
[20]
  GI50: 1740 nM
  TGI: 3.89 µM
[21]
  GI50: 2720 nM
  TGI: 11.5 µM
[22]
  GI50: 1760 nM
  TGI: 3.95 µM
[23]
  GI50: 12.2 µM
  TGI: 30.5 µM
[24]
  GI50: 1740 nM
  TGI: 3.47 µM
[25]
  GI50: 2390 nM
  TGI: 4.86 µM
[26]
  GI50: 6.75 µM
  TGI: 23.1 µM
[27]
  GI50: 4.24 µM
  TGI: 14.8 µM
[28]
  GI50: 3.48 µM
  TGI: 11 µM

From PubChem BioAssay (NCI)
